Laboratory results: PubChem BioAssay (NCI)
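A five-concentration, 48-hour dose response in 96-well plates underlies each endpoint, interpolated linearly between surrounding concentrations. Definition used: TGI = concentration required for complete inhibition of growth.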

Columns and labels:
Assay in all cases: NCI anticancer screen, dose series, 48 h
[1] = system: HS 578T breast
[2] = system: OVCAR-5 ovarian
[3] = system: SNB-75 CNS
[4] = system: T-47D breast
[5] = system: NCI/ADR-RES ovarian
[6] = system: KM12 colon
[7] = system: HCT-116 colon
[8] = system: SK-OV-3 ovarian
[9] = system: A549 NSCLC
[10] = system: HOP-62 NSCLC
[11] = system: SK-MEL-2 melanoma
[12] = system: XF 498 CNS
[13] = system: SNB-19 CNS
[14] = system: MDA-MB-435
[15] = system: SK-MEL-5 melanoma
[16] = system: OVCAR-4 ovarian
[17] = system: CCRF-CEM leukemia
[18] = system: SK-MEL-28 melanoma
[19] = system: MDA-N
[20] = system: HOP-92 NSCLC
[21] = system: NCI-H23 lung
[22] = system: MOLT-4 leukemia
[23] = system: HCT-15 colon
[24] = system: RXF 393 renal
[25] = system: M14 melanoma
[26] = system: BT-549 breast
[27] = system: RPMI-8226 leukemia
[28] = system: DLD-1 colon
[29] = system: OVCAR-8 ovarian
[30] = system: SN12C renal
[31] = system: MDA-MB-231 breast
[32] = system: CAKI-1 renal
[33] = system: HT29 colon
[34] = system: UACC-62 melanoma
[35] = system: KM20L2 colon
[36] = system: UO-31 renal
[37] = system: LXFL 529 NSCLC
[38] = system: HL-60(TB) leukemia
[39] = system: SF-539 CNS
[40] = system: PC-3 prostate
[41] = system: DMS 273 small cell lung
[42] = system: HCC-2998 colon
[43] = system: NCI-H460 lung
[44] = system: UACC-257 melanoma
[45] = system: SR leukemia
[46] = system: TK-10 renal
[47] = system: NCI-H226 lung
[48] = system: LOX IMVI melanoma
[49] = system: K-562 leukemia
[50] = system: SNB-78 CNS
[51] = system: SF-268 CNS
[52] = system: M19-MEL melanoma
[53] = system: 786-0 renal
[54] = system: RXF-631 renal
[55] = system: MALME-3M melanoma
[56] = system: SW-620 colon
[57] = system: SF-295 CNS
[58] = system: HOP-18 NSCLC
[59] = system: OVCAR-3 ovarian
[60] = system: DMS 114 small cell lung
[61] = system: MCF7 breast
[62] = system: COLO 205 colon
[63] = system: U251 CNS
[64] = system: ACHN renal
[65] = system: A498 renal
[66] = system: NCI-H522 lung
[67] = system: EKVX NSCLC
[68] = system: DU-145 prostate
[69] = system: IGROV1 ovarian

CC1(C)CC(Nc2ccc(Nc3ccccc3)cc2)CC(C)(C)N1
TGI [1]: 48.8 µM | TGI [2]: > 63.1 µM | TGI [3]: > 100 µM | TGI [4]: 37.5 µM | TGI [5]: 66.9 µM | TGI [6]: 71.2 µM | TGI [7]: 62.3 µM | TGI [8]: > 100 µM | TGI [9]: > 86.2 µM | TGI [10]: 77.3 µM | TGI [11]: 52.9 µM | TGI [12]: > 54.2 µM | TGI [13]: > 80.7 µM | TGI [14]: 33.6 µM | TGI [15]: 30.5 µM | TGI [16]: 61.9 µM | TGI [17]: 29.9 µM | TGI [18]: 33.8 µM | TGI [19]: 32.7 µM | TGI [20]: 33.9 µM | TGI [21]: 63.7 µM | TGI [22]: 53.7 µM | TGI [23]: 70.4 µM | TGI [24]: 47.5 µM | TGI [25]: 34.7 µM | TGI [26]: 27 µM | TGI [27]: 37.3 µM | TGI [28]: > 100 µM | TGI [29]: 66.3 µM | TGI [30]: 80.6 µM | TGI [31]: 32.4 µM | TGI [32]: 53.1 µM | TGI [33]: 50.7 µM | TGI [34]: 28.1 µM | TGI [35]: > 78.6 µM | TGI [36]: 24.6 µM | TGI [37]: > 56.8 µM | TGI [38]: 19.2 µM | TGI [39]: 41.9 µM | TGI [40]: 32.3 µM | TGI [41]: > 100 µM | TGI [42]: 32.7 µM | TGI [43]: 64 µM | TGI [44]: 23.9 µM | TGI [45]: 50.2 µM | TGI [46]: 48.5 µM | TGI [47]: 40.8 µM | TGI [48]: 43.1 µM | TGI [49]: 39.2 µM | TGI [50]: > 100 µM | TGI [51]: > 85.4 µM | TGI [52]: > 94.2 µM | TGI [53]: 49.2 µM | TGI [54]: > 31.6 µM | TGI [55]: 35.8 µM | TGI [56]: 49 µM | TGI [57]: > 95.3 µM | TGI [58]: > 100 µM | TGI [59]: 41.8 µM | TGI [60]: 42.9 µM | TGI [61]: 33.5 µM | TGI [62]: 32.5 µM | TGI [63]: 40.1 µM | TGI [64]: 37.2 µM | TGI [65]: 55.3 µM | TGI [66]: 26.6 µM | TGI [67]: 81.4 µM | TGI [68]: 61.1 µM | TGI [69]: 78.6 µM

O=C(/C=C/c1ccccc1Cl)c1ccc(Cl)cc1Cl
TGI [2]: 30.8 µM | TGI [3]: 37.4 µM | TGI [6]: 24.1 µM | TGI [7]: 20.5 µM | TGI [8]: 35.6 µM | TGI [9]: 39.8 µM | TGI [10]: 42.1 µM | TGI [13]: 28.8 µM | TGI [15]: 28.6 µM | TGI [16]: 29.7 µM | TGI [17]: 17.4 µM | TGI [18]: 24.8 µM | TGI [20]: 39 µM | TGI [21]: 37.9 µM | TGI [22]: 26 µM | TGI [23]: 25.4 µM | TGI [25]: 32 µM | TGI [27]: 37.5 µM | TGI [28]: 32.3 µM | TGI [29]: 29.3 µM | TGI [30]: 32.2 µM | TGI [32]: 28.4 µM | TGI [33]: 28 µM | TGI [34]: 27.6 µM | TGI [35]: 28.3 µM | TGI [36]: 36.9 µM | TGI [37]: 29.7 µM | TGI [38]: 46.3 µM | TGI [39]: 38.5 µM | TGI [41]: 29.6 µM | TGI [42]: 33.1 µM | TGI [43]: 31.6 µM | TGI [44]: 29.7 µM | TGI [46]: 31.7 µM | TGI [47]: 31.5 µM | TGI [49]: 11.7 µM | TGI [50]: 36.2 µM | TGI [51]: 31.3 µM | TGI [52]: 31.9 µM | TGI [53]: 31.4 µM | TGI [54]: 34.6 µM | TGI [55]: 33.5 µM | TGI [56]: 3.36 µM | TGI [57]: 36.3 µM | TGI [58]: 31.2 µM | TGI [59]: 31.6 µM | TGI [60]: 26.3 µM | TGI [62]: 32.1 µM | TGI [63]: 25.5 µM | TGI [64]: 32 µM | TGI [65]: 33.3 µM | TGI [67]: 32.9 µM | TGI [69]: 27.6 µM

CC1(O)CCC2(C#N)CCC1C2O (configuration not stated)
TGI [2]: > 100 µM | TGI [3]: > 100 µM | TGI [6]: > 100 µM | TGI [7]: > 100 µM | TGI [8]: > 100 µM | TGI [9]: > 100 µM | TGI [10]: > 100 µM | TGI [11]: > 100 µM | TGI [12]: > 100 µM | TGI [13]: > 100 µM | TGI [15]: > 100 µM | TGI [16]: > 100 µM | TGI [17]: > 100 µM | TGI [18]: > 100 µM | TGI [22]: > 100 µM | TGI [23]: > 100 µM | TGI [24]: > 100 µM | TGI [25]: > 100 µM | TGI [27]: 54.6 µM | TGI [28]: > 100 µM | TGI [29]: > 100 µM | TGI [30]: > 100 µM | TGI [32]: > 100 µM | TGI [33]: > 100 µM | TGI [34]: > 100 µM | TGI [35]: > 100 µM | TGI [36]: > 100 µM | TGI [37]: > 100 µM | TGI [38]: > 100 µM | TGI [39]: > 100 µM | TGI [41]: > 100 µM | TGI [42]: > 100 µM | TGI [43]: > 100 µM | TGI [44]: > 100 µM | TGI [45]: 45.4 µM | TGI [46]: > 100 µM | TGI [47]: > 100 µM | TGI [48]: 41.9 µM | TGI [49]: > 100 µM | TGI [50]: > 100 µM | TGI [51]: > 100 µM | TGI [52]: > 100 µM | TGI [53]: > 100 µM | TGI [54]: > 100 µM | TGI [55]: > 100 µM | TGI [57]: > 100 µM | TGI [58]: > 100 µM | TGI [59]: > 100 µM | TGI [60]: 31.1 µM | TGI [62]: > 100 µM | TGI [63]: > 100 µM | TGI [64]: > 100 µM | TGI [65]: > 100 µM | TGI [66]: > 100 µM | TGI [67]: > 100 µM | TGI [69]: > 100 µM

O=c1c2ccccc2nc(-c2cccc(Cl)c2)n1NCC1(O)OCC(O)C(O)C1O (configuration not stated)
TGI [2]: > 100 µM | TGI [6]: > 100 µM | TGI [7]: > 100 µM | TGI [8]: > 100 µM | TGI [9]: > 100 µM | TGI [11]: > 100 µM | TGI [13]: > 100 µM | TGI [16]: > 100 µM | TGI [17]: > 100 µM | TGI [18]: > 100 µM | TGI [21]: > 100 µM | TGI [22]: > 100 µM | TGI [23]: > 100 µM | TGI [24]: > 100 µM | TGI [25]: > 100 µM | TGI [27]: > 100 µM | TGI [29]: > 100 µM | TGI [30]: > 100 µM | TGI [32]: > 100 µM | TGI [33]: > 100 µM | TGI [34]: > 100 µM | TGI [35]: > 100 µM | TGI [36]: > 100 µM | TGI [37]: > 100 µM | TGI [38]: > 100 µM | TGI [39]: > 100 µM | TGI [41]: > 100 µM | TGI [43]: > 100 µM | TGI [44]: > 100 µM | TGI [45]: > 100 µM | TGI [47]: > 100 µM | TGI [48]: > 100 µM | TGI [49]: > 100 µM | TGI [50]: > 100 µM | TGI [51]: > 100 µM | TGI [52]: > 100 µM | TGI [53]: > 100 µM | TGI [54]: > 100 µM | TGI [55]: > 100 µM | TGI [56]: > 100 µM | TGI [57]: > 100 µM | TGI [59]: > 100 µM | TGI [60]: > 100 µM | TGI [62]: > 100 µM | TGI [63]: > 100 µM | TGI [64]: > 100 µM | TGI [65]: > 100 µM | TGI [66]: > 100 µM | TGI [67]: > 100 µM
